# Test results taken from US5413915A (priority 1991, dated 1995).
# Experiments:
# [1] = Oxidation-reduction potentials and redox mediation of dyes and reagents; format: physicochemical
# Description: Diphenylmethane and triphenylmethane dyes of the present invention have midpoint oxidation-reduction ("redox") potentials ("Em7 ") apparently more negative than the Em7 value for NADPH or cytochrome P450 isozymes. […] Specific examples include pararosaniline (E1/2 =-0.75 V) and malachite green (E1/2 =-0.55 V) (W. Kemula and A. Axt (1969) op cit; Also H. O. Willard, L. L. Merritt, and J. A. Dean (1965) Instrumental Methods of Analysis, 4th Ed., pp. 682-685 and 760-763, for a comparison of E1/2 versus Em7. These potentials are too negative for direct measurement in water, as Em7 =-0.42 V for water breakdown to hydrogen.), both of which respond with color development upon microsomal metabolic activation.
# Methylene blue is a rapidly mediating redox indicator, and as such is conventionally used for standardization of electrodes and electrochemical systems used in redox potentiometry. Systems containing ascorbate were therefore tightly clamped at a redox potential of +10 to +20 mV, regardless of any interfering influences such as oxygen. […] Spectrum "mb" is that of pure methylene blue in its oxidized state. Curve "oxid" is the spectrum of a mixed solution of methylene blue as in curve "mb" plus the fully oxidized pararosaniline. […]
# [2] = literature (Kemula and Axt); cited from earlier work
structure (smiles),measurement,setting,value
N=C1C=CC(=C(c2ccc(N)cc2)c2ccc(N)cc2)C=C1 [pararosaniline],standard oxidation-reduction potential (Em7),"[1]; aqueous media, from FIG. 1 data",< -0.1 V
same,Time to equilibrate in a redox voltage-clamped system,[1]; ascorbate / methylene blue clamped system,two
same,E1/2,[2],-0.75 V
